Test results published in patent US20070172957A1, “Methods of identifying anti-inflammatory macrolides” (TAISHO PHARMACEUTICAL CO., LTD., priority 2004, published 2007).

Test system: genes predictive for the anti-inflammatory macrolide effect
Assay: Genes statistically predictive of Clari response: differentially expressed with Clari but not the inactive macrolides MAA or Josa (Appendix E)
Type: cell-based
Source text: In the case of the above-mentioned (i) related to arachidonic acid biosynthesis, specifically, methods of the embodiment involve assaying whether a test macrolide alters biosynthesis of arachidonic acid, alters the expression or activities of enzymes involved in the biosynthesis or activation of arachidonic acid (e.g., arachidonic acid CoA synthetase, delta-6 desaturase, fatty acid elongase, and delta-5 desaturase, AA-related genes in Tables 2 and 3), or alters the expression of genes identified as predictive for the anti-inflammatory macrolide effect (Appendix E). Assays in which arachidonic acid or gene expression or enzymatic activity is detected can be carried out after contacting a cell with a test macrolide. Any cell line that secretes prostaglandin or produces arachidonic acid can be used. Epithelial and macrophages lines (e.g., A549 or THP-1) are suitable for this purpose; other cell lines can be identified by carrying out assays such as those described in the specific Examples, below. Alternatively, screening assays can be carried out after adding a test macrolide to an in vitro cell system (e.g., a cellular extract or liver microsome preparation) or an in vitro enzyme assay system.

Q: Which results are given for `CC[C@H]1OC(=O)[C@H](C)[C@@H](O[C@H]2C[C@@](C)(OC)[C@@H](O)[C@H](C)O2)[C@H](C)[C@@H](O[C@@H]2O[C@H](C)C[C@H](N(C)C)[C@H]2O)[C@](C)(OC)C[C@@H](C)C(=O)[C@H](C)[C@@H](O)[C@]1(C)O` [clarithromycin]?
A: group mean, gene SERPING1 (SpotID 46579, MAA and Josa vs. Clari): 0.86; group mean, gene C12orf8 (SpotID 46586, MAA and Josa vs. Clari): 1.22; mean group, FLJ20699 (SpotID 46633, pooled group mean): 0.81; mean group, ARHGAP1 (SpotID 46648, pooled group mean): 0.96; group mean, gene KIAA1172 (SpotID 46679, MAA and Josa vs. Clari): 0.91; mean group, KIAA1172 (SpotID 46679, pooled group mean): 0.92; group mean, gene MKNK2 (SpotID 46825, MAA and Josa vs. Clari): 1.15; mean group, MKNK2 (SpotID 46825, pooled group mean): 1.12; group mean, gene PRKAR1A (SpotID 46838, MAA and Josa vs. Clari): 0.92; group mean, gene ARHGDIA (SpotID 46843, MAA and Josa vs. Clari): 0.91; mean group, ARHGDIA (SpotID 46843, pooled group mean): 0.93; group mean, gene HEXA (SpotID 46882, MAA and Josa vs. Clari): 1.14; group mean, gene CDIPT (SpotID 46896, MAA and Josa vs. Clari): 1.04; mean group, CDIPT (SpotID 46896, pooled group mean): 1.01; mean group, PACE (SpotID 46923, pooled group mean): 1.09; group mean, gene METAP2 (SpotID 46935, MAA and Josa vs. Clari): 0.88; mean group, METAP2 (SpotID 46935, pooled group mean): 0.89; group mean, gene HSPBP1 (SpotID 46979, MAA and Josa vs. Clari): 0.87; mean group, EREG (SpotID 46988, pooled group mean): 0.85; group mean, gene TFPI2 (SpotID 46991, MAA and Josa vs. Clari): 0.57; group mean, gene C2orf3 (SpotID 47034, MAA and Josa vs. Clari): 0.87; mean group, C2orf3 (SpotID 47034, pooled group mean): 0.90; group mean, gene NFRKB (SpotID 47056, MAA and Josa vs. Clari): 0.82; group mean, gene GOLGB1 (SpotID 47111, MAA and Josa vs. Clari): 1.17; group mean, gene MCM2 (SpotID 47123, MAA and Josa vs. Clari): 0.78; group mean, gene KIAA0251 (SpotID 47131, MAA and Josa vs. Clari): 1.07; group mean, gene ARHGAP1 (SpotID 47192, MAA and Josa vs. Clari): 0.94; group mean, gene ITGB5 (SpotID 47212, MAA and Josa vs. Clari): 1.12; mean group, NUBP1 (SpotID 47241, pooled group mean): 0.95; group mean, gene AKR1A1 (SpotID 47249, MAA and Josa vs. Clari): 1.08; group mean, gene HKE4 (SpotID 47251, MAA and Josa vs. Clari): 1.13; mean group, EPOR (SpotID 47314, pooled group mean): 1.14; group mean, gene ADAM11 (SpotID 47352, MAA and Josa vs. Clari): 1.18; mean group, ADAM11 (SpotID 47352, pooled group mean): 1.10; group mean, gene ERF (SpotID 47354, MAA and Josa vs. Clari): 1.00; mean group, P4HB (SpotID 47366, pooled group mean): 1.18; group mean, gene MTHFD1 (SpotID 47406, MAA and Josa vs. Clari): 0.93; mean group, CETN2 (SpotID 47415, pooled group mean): 1.18; group mean, gene SNK (SpotID 47418, MAA and Josa vs. Clari): 0.77; mean group, SNK (SpotID 47418, pooled group mean): 0.82; mean group, GCS1 (SpotID 47432, pooled group mean): 1.02; group mean, gene DCTN1 (SpotID 47439, MAA and Josa vs. Clari): 0.93; mean group, DCTN1 (SpotID 47439, pooled group mean): 0.95; group mean, gene RANBP1 (SpotID 47446, MAA and Josa vs. Clari): 0.83; mean group, RANBP1 (SpotID 47446, pooled group mean): 0.89; mean group, MSH3 (SpotID 47504, pooled group mean): 0.99; mean group, SERPINA1 (SpotID 47522, pooled group mean): 0.95; group mean, gene PTK2B (SpotID 47524, MAA and Josa vs. Clari): 1.08; group mean, gene ARHGDIA (SpotID 47535, MAA and Josa vs. Clari): 0.91; group mean, gene TRAP1 (SpotID 47622, MAA and Josa vs. Clari): 0.89; mean group, TRAP1 (SpotID 47622, pooled group mean): 0.94; group mean, gene HSPA9B (SpotID 47661, MAA and Josa vs. Clari): 0.90; mean group, NR4A2 (SpotID 47679, pooled group mean): 1.14; group mean, gene HSPA9B (SpotID 47694, MAA and Josa vs. Clari): 0.90; mean group, HSPA9B (SpotID 47694, pooled group mean): 0.95; group mean, gene MAD4 (SpotID 47705, MAA and Josa vs. Clari): 1.42; group mean, gene NBS1 (SpotID 47754, MAA and Josa vs. Clari): 0.89; mean group, NBS1 (SpotID 47754, pooled group mean): 0.97; group mean, gene KIAA1922 (SpotID 47755, MAA and Josa vs. Clari): 0.79; group mean, gene POLA (SpotID 47776, MAA and Josa vs. Clari): 0.86; mean group, POLA (SpotID 47776, pooled group mean): 0.89; group mean, gene BET3 (SpotID 47793, MAA and Josa vs. Clari): 1.08; group mean, gene GOT1 (SpotID 47802, MAA and Josa vs. Clari): 0.93; mean group, GOT1 (SpotID 47802, pooled group mean): 0.94; group mean, gene ENTPD6 (SpotID 47811, MAA and Josa vs. Clari): 1.11; mean group, ENTPD6 (SpotID 47811, pooled group mean): 1.06; mean group, SSI-1 (SpotID 47846, pooled group mean): 0.93; group mean, gene PRLR (SpotID 47850, MAA and Josa vs. Clari): 0.99; mean group, PRLR (SpotID 47850, pooled group mean): 0.99; group mean, gene ERF (SpotID 47898, MAA and Josa vs. Clari): 1.01; group mean, gene YWHAE (SpotID 47911, MAA and Josa vs. Clari): 0.95; group mean, gene CCNE2 (SpotID 47926, MAA and Josa vs. Clari): 0.73; group mean, gene P4HA1 (SpotID 47935, MAA and Josa vs. Clari): 1.27; mean group, P4HA1 (SpotID 47935, pooled group mean): 1.18; group mean, gene CTSB (SpotID 47937, MAA and Josa vs. Clari): 1.15; group mean, gene INPP5E (SpotID 47939, MAA and Josa vs. Clari): 0.89; group mean, gene SF3B3 (SpotID 47947, MAA and Josa vs. Clari): 0.93
